Test results reported in the NIST ThermoML archive (doi:10.1021/je7002836).

Key:
[1] = xn = mol fraction of the nth substance listed; settings: 318.15 K, 101 kPa, Liquid
[2] = molar heat capacity at constant pressure; xn = mol fraction of the nth substance listed; settings: 101 kPa, Liquid

C[N+](=O)[O-] [nitromethane] + CCCC[n+]1cccc(C)c1.F[B-](F)(F)F
[1]
Settings	mass density [kg/m3]
x2 = 0.8842	1170.3
x2 = 0.9034	1170.5
x2 = 0.941	1171

molar heat capacity at constant pressure [J/K/mol], [2]
Settings	293.15 K	298.15 K	303.15 K	308.15 K	313.15 K	318.15 K
x2 = 0	106.6	106.9	107.3	107.7	108.2	108.6
x2 = 0.0517	120.3	120.5	120.9	121.3	121.9	122.4
x2 = 0.1038	134.2	134.7	135.2	135.7	136.4	137.1
x2 = 0.1952	159.9	160.4	161	161.8	162.5	163.5
x2 = 0.3563	205.2	206	206.9	208	209.2	210.6
x2 = 0.3998	217.4	218.3	219.3	220.5	221.9	223.5
x2 = 0.5121	249.2	250.2	251.4	252.8	254.4	256.3
x2 = 0.5994	273.7	274.8	276.2	277.9	279.8	281.9
x2 = 0.6856	297.7	299	300.6	302.5	304.6	307
x2 = 0.7863	326.4	327.8	329.6	331.7	334.1	336.8
x2 = 0.8842	353.6	355.3	357.3	359.7	362.4	365.5
x2 = 0.9034	359.1	360.8	362.9	365.3	368.1	371.1
x2 = 0.941	369.8	371.6	373.7	376.2	379	382.3
